The values below come from ChEMBL document CHEMBL3108684, “Discovery and development of potent and selective inhibitors of histone methyltransferase g9a” (ACS Med Chem Lett, 2014).

SMILES strings stand for the structures. Activity calls are given as the source filed them. No cut-off for these calls is given here.

For test [1], the target named is T1, Histone-lysine N-methyltransferase EHMT2 (Homo sapiens, UniProt Q96KQ7).
T1 sequence (Q96KQ7 whole entry): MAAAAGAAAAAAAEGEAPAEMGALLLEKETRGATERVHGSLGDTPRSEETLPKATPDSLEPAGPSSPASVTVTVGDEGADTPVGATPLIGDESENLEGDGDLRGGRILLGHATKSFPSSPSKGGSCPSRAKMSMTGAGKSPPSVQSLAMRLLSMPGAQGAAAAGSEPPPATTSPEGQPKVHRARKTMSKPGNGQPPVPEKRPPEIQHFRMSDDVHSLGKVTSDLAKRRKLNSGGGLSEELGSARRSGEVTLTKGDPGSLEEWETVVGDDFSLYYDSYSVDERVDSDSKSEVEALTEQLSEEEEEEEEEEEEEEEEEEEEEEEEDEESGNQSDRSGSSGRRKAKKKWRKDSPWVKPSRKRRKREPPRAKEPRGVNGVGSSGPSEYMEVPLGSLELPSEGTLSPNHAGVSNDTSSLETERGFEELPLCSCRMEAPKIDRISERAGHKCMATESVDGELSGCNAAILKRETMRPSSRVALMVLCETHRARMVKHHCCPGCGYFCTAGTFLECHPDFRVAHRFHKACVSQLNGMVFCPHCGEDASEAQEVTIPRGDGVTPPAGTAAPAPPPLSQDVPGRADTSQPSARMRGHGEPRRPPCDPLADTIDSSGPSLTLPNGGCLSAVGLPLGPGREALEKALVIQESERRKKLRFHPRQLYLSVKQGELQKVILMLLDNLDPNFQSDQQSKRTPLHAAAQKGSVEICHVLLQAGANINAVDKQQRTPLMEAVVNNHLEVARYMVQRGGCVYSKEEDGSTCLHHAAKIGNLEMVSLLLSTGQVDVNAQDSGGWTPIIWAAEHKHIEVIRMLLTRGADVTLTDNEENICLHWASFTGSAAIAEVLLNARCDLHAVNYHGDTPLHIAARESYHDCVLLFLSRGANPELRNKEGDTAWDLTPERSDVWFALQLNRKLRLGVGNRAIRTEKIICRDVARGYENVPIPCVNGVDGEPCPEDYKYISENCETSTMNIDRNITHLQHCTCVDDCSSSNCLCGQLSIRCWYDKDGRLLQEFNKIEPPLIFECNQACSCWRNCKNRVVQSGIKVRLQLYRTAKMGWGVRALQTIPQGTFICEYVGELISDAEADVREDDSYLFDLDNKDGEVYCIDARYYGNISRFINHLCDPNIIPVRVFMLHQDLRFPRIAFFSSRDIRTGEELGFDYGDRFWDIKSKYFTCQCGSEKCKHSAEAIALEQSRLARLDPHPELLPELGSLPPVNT
Kind of test: Inhibition of G9a (unknown origin) using biotinylated-histone H3(1-21) peptide as substrate after 3 hrs by AlphaLISA assay.

In test [2] the target is PRMT5/MEP50 complex (Homo sapiens) (UniProt O14744+Q9BQA1). Kind of test: Inhibition of PRMT5/MEP50 complex (unknown origin)-mediated incorporation of methyl group from [3H]-SAM into peptide substrate up to 50 uM by scintillation proximity assay. Type of test: protein-complex assay.
The target in test [3] is N-lysine methyltransferase KMT5A (Homo sapiens) (UniProt Q9NQR1). Kind of test: Inhibition of SETD8 (unknown origin)-mediated incorporation of methyl group from [3H]-SAM into peptide substrate up to 50 uM by scintillation proximity assay. (Scintillation proximity formats need no separation of bound from free tracer.)
Test [4] addresses Histone-lysine N-methyltransferase KMT5C (Homo sapiens) (UniProt Q86Y97). Kind of test: Inhibition of SUV420H2 (unknown origin)-mediated incorporation of methyl group from [3H]-SAM into peptide substrate up to 50 uM by scintillation proximity assay.
In test [5] the target is Histone-lysine N-methyltransferase, H3 lysine-79 specific (Homo sapiens) (UniProt Q8TEK3). Briefly: Inhibition of DOT1L (unknown origin)-mediated incorporation of methyl group from [3H]-SAM into peptide substrate up to 50 uM after 1 hr by scintillation proximity assay.
The target of test [6] is Protein arginine N-methyltransferase 8 (Homo sapiens) (UniProt Q9NR22). Briefly: Inhibition of PRMT8 (unknown origin)-mediated incorporation of methyl group from [3H]-SAM into peptide substrate up to 50 uM by scintillation proximity assay.
The target in test [7] is Histone-lysine N-methyltransferase KMT5B (Homo sapiens) (UniProt Q4FZB7). Briefly: Inhibition of SUV420H1 (unknown origin)-mediated incorporation of methyl group from [3H]-SAM into peptide substrate up to 50 uM by scintillation proximity assay.
For test [8], the system named is PC-3. Briefly: Effect on total histone 3 protein level in human PC3 cells at 0.01 to 10 uM after 72 hrs by Western blotting analysis. Type of test: functional, cell-based. A general note: A western blot detects proteins with antibodies after separation by electrophoresis.
The test system of test [9] is PC-3. Kind of test: Effect on total H3K27Me3 protein level in human PC3 cells at 0.01 to 10 uM after 72 hrs by Western blotting analysis. The class given is functional, cell-based.
Test [10] addresses Histone-lysine N-methyltransferase EHMT1 (Homo sapiens, UniProt Q9H9B1). Kind of test: Inhibition of GLP (unknown origin)-mediated incorporation of methyl group from [3H]-SAM into peptide substrate by scintillation proximity assay.
Test [11] concerns the target N-lysine methyltransferase SMYD2 (Homo sapiens) (UniProt Q9NRG4). Kind of test: Inhibition of SMYD2 (unknown origin)-mediated incorporation of methyl group from [3H]-SAM into peptide substrate up to 50 uM by scintillation proximity assay.
In test [12] the target is MLL1/ASH2L/RBBP5/WDR5 complex (Homo sapiens) (UniProt P61964+Q03164+Q9UBL3+Q15291). Briefly: Inhibition of MLL1/ASH2L/RBBP5/WDR5 complex (unknown origin)-mediated incorporation of methyl group from [3H]-SAM into peptide substrate up to 50 uM by scintillation proximity assay. The class given is protein-complex assay.
Test [13] concerns the target Histone-lysine N-methyltransferase SUV39H2 (Homo sapiens) (UniProt Q9H5I1). Kind of test: Inhibition of SUV39H2 (unknown origin)-mediated incorporation of methyl group from [3H]-SAM into peptide substrate up to 50 uM by scintillation proximity assay.
For test [14], the target named is Protein arginine N-methyltransferase 1 (Homo sapiens) (UniProt Q99873). Kind of test: Inhibition of PRMT1 (unknown origin)-mediated incorporation of methyl group from [3H]-SAM into peptide substrate up to 50 uM by scintillation proximity assay.
Test [15] has as its target Histone-lysine N-methyltransferase EHMT2 (Homo sapiens) (UniProt Q96KQ7). The settings on record: PC-3, 3 uM.
Description: Inhibition of G9a in human PC3 cells assessed as reduction in H3K9Me2 level at 3 uM after 72 hrs by Western blotting analysis relative to control
Test [16] deals with Protein arginine N-methyltransferase 6 (Homo sapiens) (UniProt Q96LA8). Kind of test: Inhibition of PRMT6 (unknown origin)-mediated incorporation of methyl group from [3H]-SAM into peptide substrate up to 50 uM by scintillation proximity assay.
Test [17] has as its target Histone-lysine N-methyltransferase NSD2 (Homo sapiens) (UniProt O96028). Kind of test: Inhibition of WHSC1 (unknown origin)-mediated incorporation of methyl group from [3H]-SAM into peptide substrate up to 50 uM after 1 hr by scintillation proximity assay.
Test [18] addresses EZH2/SUZ12/EED complex (Homo sapiens) (UniProt Q15910+O75530+Q15022). Briefly: Inhibition of EZH2/SUZ12/EED complex (unknown origin)-mediated incorporation of methyl group from [3H]-SAM into peptide substrate up to 50 uM by scintillation proximity assay. The class given is protein-complex assay.
The target in test [19] is Histone-lysine N-methyltransferase SETDB1 (Homo sapiens) (UniProt Q15047). Briefly: Inhibition of SETDB1 (unknown origin)-mediated incorporation of methyl group from [3H]-SAM into peptide substrate up to 50 uM by scintillation proximity assay.
Test [20] deals with Histone-lysine N-methyltransferase SETD2 (Homo sapiens) (UniProt Q9BYW2). Kind of test: Inhibition of SETD2 (unknown origin)-mediated incorporation of methyl group from [3H]-SAM into peptide substrate up to 50 uM by scintillation proximity assay.
In test [21] the target is Histone-lysine N-methyltransferase NSD3 (Homo sapiens) (UniProt Q9BZ95). Briefly: Inhibition of WHSC1L (unknown origin)-mediated incorporation of methyl group from [3H]-SAM into peptide substrate up to 50 uM after 1 hr by scintillation proximity assay.
In test [22] the target is Protein arginine N-methyltransferase 3 (Homo sapiens) (UniProt O60678). Kind of test: Inhibition of PRMT3 (unknown origin)-mediated incorporation of methyl group from [3H]-SAM into peptide substrate up to 50 uM by scintillation proximity assay.
Test [23] concerns the target DNA (cytosine-5)-methyltransferase 1 (Homo sapiens) (UniProt P26358). Kind of test: Inhibition of DNMT1 (unknown origin)-mediated incorporation of methyl group from [3H]-SAM into dsDNA substrate up to 50 uM by scintillation proximity assay.
Test [24] has as its system PC-3. Briefly: Effect on total H3K36Me2 protein level in human PC3 cells at 0.01 to 10 uM after 72 hrs by Western blotting analysis. The class given is functional, cell-based.
Test [25] concerns the target Histone-lysine N-methyltransferase SMYD3 (Homo sapiens) (UniProt Q9H7B4). Briefly: Inhibition of SMYD3 (unknown origin)-mediated incorporation of methyl group from [3H]-SAM into peptide substrate up to 50 uM by scintillation proximity assay.
The target of test [26] is Histone-lysine N-methyltransferase SETD7 (Homo sapiens) (UniProt Q8WTS6). Briefly: Inhibition of SETD7 (unknown origin)-mediated incorporation of methyl group from [3H]-SAM into peptide substrate up to 50 uM by scintillation proximity assay.
Test [27] has as its target EZH1/SUZ12/EED/AEBP2/RBBP4 complex (Homo sapiens) (UniProt Q92800+O75530+Q15022+Q6ZN18+Q09028). Kind of test: Inhibition of EZH1/EED/SUZ12/AEBP2/RBBP4 complex (unknown origin)-mediated incorporation of methyl group from [3H]-SAM into peptide substrate up to 50 uM by scintillation proximity assay. The class given is protein-complex assay.

Sequence of Histone-lysine N-methyltransferase SUV39H2 (Homo sapiens) (Q9H5I1 whole entry): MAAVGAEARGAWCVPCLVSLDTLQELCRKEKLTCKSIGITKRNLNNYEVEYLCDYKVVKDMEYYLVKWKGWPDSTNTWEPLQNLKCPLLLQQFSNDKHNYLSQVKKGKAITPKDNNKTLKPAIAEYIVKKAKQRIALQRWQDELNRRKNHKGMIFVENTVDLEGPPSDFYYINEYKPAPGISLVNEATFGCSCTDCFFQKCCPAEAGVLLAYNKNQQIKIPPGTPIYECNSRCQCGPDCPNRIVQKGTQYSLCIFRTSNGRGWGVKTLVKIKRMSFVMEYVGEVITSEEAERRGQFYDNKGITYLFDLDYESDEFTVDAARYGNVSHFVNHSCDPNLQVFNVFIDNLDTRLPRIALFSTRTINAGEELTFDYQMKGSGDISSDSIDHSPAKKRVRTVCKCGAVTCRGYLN
Sequence of Protein arginine N-methyltransferase 6 (Homo sapiens) (Q96LA8 whole entry, looked up): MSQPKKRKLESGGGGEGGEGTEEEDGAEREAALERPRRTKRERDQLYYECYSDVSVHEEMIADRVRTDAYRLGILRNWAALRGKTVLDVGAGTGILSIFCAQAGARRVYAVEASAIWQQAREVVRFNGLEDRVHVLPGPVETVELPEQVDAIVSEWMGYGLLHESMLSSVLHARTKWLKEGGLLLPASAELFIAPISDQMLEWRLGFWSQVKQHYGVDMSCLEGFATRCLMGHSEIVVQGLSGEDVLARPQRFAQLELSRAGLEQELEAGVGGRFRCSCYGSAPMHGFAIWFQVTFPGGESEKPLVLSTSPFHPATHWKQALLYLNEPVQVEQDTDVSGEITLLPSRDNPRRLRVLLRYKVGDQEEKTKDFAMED
Sequence of Histone-lysine N-methyltransferase KMT5C (Homo sapiens) (Q86Y97 whole entry, looked up): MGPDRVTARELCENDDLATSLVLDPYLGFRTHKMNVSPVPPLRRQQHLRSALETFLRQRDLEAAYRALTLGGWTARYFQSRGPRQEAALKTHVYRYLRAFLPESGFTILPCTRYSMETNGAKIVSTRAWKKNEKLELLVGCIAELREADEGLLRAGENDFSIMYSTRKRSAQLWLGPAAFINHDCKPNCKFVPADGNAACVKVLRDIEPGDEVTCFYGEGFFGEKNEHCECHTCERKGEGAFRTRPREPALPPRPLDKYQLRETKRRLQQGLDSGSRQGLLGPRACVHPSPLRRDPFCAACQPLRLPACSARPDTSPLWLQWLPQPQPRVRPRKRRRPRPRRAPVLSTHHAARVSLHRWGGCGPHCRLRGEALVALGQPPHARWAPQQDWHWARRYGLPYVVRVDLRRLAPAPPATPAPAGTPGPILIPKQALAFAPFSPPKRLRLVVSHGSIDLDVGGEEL
Sequence of Histone-lysine N-methyltransferase SETD2 (Homo sapiens) (Q9BYW2 whole entry): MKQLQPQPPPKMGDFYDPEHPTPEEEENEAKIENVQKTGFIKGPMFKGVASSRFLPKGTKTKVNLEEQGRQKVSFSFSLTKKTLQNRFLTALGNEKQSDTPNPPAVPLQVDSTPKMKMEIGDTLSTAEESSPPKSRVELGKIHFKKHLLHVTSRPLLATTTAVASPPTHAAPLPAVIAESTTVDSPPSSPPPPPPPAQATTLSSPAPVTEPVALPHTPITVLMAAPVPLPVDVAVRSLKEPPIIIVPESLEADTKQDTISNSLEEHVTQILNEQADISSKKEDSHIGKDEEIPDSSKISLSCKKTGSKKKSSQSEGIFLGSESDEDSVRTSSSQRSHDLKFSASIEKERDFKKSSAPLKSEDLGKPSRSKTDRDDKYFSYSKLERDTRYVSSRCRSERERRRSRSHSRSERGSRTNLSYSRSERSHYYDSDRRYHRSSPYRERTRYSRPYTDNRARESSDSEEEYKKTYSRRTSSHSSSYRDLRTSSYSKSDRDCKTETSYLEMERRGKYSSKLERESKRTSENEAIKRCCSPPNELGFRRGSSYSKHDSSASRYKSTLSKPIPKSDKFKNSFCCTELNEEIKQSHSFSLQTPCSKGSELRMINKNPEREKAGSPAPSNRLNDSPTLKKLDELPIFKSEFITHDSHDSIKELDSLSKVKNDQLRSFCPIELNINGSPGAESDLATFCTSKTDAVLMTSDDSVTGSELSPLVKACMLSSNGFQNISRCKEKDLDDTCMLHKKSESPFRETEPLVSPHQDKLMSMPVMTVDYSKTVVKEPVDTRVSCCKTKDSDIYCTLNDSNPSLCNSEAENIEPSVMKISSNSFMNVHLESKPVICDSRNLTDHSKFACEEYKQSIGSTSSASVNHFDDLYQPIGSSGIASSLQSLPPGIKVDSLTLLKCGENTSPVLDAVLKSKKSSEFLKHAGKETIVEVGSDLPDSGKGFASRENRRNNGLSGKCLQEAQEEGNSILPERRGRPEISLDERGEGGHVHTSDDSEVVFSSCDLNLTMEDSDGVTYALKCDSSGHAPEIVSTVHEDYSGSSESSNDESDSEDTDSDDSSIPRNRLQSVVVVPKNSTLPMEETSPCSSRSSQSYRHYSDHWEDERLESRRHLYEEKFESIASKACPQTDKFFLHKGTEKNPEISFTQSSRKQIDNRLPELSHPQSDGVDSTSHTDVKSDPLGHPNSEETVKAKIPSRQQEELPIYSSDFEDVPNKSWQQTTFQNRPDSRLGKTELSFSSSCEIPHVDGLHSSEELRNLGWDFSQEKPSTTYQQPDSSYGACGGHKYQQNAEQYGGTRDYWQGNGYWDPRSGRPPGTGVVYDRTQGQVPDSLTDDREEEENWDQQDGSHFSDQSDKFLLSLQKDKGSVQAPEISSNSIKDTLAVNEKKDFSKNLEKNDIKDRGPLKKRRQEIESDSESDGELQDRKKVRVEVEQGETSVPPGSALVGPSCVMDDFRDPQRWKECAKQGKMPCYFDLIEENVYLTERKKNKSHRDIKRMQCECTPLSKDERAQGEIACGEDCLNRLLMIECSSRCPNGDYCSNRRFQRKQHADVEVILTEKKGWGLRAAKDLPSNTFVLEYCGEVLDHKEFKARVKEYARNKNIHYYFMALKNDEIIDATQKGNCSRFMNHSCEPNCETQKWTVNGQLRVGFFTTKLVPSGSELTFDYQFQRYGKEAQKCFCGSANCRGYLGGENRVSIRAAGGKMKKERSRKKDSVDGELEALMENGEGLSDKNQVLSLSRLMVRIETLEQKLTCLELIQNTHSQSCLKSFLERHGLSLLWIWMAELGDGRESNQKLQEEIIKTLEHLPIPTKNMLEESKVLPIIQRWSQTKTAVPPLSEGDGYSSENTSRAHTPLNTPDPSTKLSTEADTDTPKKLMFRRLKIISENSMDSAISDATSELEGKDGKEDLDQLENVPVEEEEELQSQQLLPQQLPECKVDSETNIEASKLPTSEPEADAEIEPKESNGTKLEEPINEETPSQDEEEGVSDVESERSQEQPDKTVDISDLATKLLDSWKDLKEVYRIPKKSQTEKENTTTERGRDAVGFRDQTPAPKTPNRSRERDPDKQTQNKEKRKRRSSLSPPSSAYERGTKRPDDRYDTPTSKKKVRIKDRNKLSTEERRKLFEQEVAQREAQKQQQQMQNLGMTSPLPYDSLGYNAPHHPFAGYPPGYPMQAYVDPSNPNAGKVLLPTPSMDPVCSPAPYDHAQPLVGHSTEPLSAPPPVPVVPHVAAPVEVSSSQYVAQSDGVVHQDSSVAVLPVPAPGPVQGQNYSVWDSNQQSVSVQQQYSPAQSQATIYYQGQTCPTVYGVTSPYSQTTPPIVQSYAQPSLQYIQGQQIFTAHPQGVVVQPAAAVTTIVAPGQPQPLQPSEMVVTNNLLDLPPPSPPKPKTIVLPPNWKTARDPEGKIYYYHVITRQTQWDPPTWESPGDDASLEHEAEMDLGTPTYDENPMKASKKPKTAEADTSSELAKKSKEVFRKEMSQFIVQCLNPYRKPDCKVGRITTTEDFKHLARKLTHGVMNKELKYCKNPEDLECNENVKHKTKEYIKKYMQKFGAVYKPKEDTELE
Sequence of Protein arginine N-methyltransferase 8 (Homo sapiens) (Q9NR22 2-394 limits assumed): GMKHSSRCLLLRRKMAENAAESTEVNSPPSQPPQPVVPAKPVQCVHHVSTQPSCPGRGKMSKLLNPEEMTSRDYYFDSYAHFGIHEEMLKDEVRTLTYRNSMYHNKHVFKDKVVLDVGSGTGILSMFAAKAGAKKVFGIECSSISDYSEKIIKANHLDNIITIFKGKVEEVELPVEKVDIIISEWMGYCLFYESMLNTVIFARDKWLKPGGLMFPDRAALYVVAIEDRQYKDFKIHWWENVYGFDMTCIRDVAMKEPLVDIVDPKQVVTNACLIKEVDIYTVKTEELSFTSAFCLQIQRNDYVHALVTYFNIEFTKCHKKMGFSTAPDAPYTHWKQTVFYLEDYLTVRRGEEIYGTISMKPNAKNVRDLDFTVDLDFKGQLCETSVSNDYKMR
Sequence of Protein arginine N-methyltransferase 1 (Homo sapiens) (Q99873 whole entry, looked up): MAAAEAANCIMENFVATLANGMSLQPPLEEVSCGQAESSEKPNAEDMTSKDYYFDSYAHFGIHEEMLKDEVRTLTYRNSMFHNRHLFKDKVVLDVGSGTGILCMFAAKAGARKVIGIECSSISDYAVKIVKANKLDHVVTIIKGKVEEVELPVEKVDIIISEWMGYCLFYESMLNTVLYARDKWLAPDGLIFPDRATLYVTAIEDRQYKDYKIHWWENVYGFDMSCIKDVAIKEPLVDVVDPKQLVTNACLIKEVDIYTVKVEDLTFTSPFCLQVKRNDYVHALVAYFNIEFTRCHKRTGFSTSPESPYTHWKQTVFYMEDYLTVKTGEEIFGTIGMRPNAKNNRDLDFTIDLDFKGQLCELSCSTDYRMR
Sequence of Histone-lysine N-methyltransferase SMYD3 (Homo sapiens) (Q9H7B4 whole entry): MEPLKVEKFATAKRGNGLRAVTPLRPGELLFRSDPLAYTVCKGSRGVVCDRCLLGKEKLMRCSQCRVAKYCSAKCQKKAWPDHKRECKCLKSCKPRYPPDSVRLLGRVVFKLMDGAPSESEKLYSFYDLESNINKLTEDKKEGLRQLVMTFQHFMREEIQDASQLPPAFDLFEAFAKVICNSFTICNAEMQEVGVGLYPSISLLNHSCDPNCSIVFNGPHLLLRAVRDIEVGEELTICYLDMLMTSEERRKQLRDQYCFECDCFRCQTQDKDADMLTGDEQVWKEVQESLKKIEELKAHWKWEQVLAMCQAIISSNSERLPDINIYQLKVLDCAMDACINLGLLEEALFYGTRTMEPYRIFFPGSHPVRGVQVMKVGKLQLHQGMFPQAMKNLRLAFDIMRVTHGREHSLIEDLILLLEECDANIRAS

With `COc1cc2c(cc1OCCCN1CC[C@H](F)C1)N=C(N)C21CCC1`, the IC50 in [1] came to 18 nM.

`COc1cc2c(cc1OCCCN1CC[C@@H](F)C1)N=C(N)C21CCC1`: the midpoint of inhibition in test [1], the IC50, lay at 3.7 nM. This IC50 is about 4.9-fold lower than that of the compound before.

Turning to `COc1cc2c(cc1OCCCN1CCCC1)N=C(N)C21CCC1`, the inhibition entry in [2], in [3], in [4], in test [5], in [6] and in test [7] was “inactive” in each case. Besides, the inhibition result in [11], in [12], in [13], in test [14], in test [16] and in [17] was “inactive” in each case. The inhibition result in [18], in [19], in test [20], in [21], in [22] and in test [23] was “inactive” each time. Moreover, the inhibition result in [25], in test [26] and in test [27] was “inactive” throughout. In addition, the outcome in test [8], in test [9] and in test [24] was inactive. Further, the IC50 in test [10] is 38 nM. The compound also showed an inhibition in test [15] of 50%.

Take `COc1cc2c(NC3CCN(C(C)C)CC3)nc(C3CCCCC3)nc2cc1OCCCN1CCCC1`: the result in test [8], in test [9] and in [24] was inactive. Further, the inhibition in test [15] turned out to be 50%.

Compound `COc1cc2cc(N)[nH]c2cc1OC` displayed an IC50 in test [1] of 14400 nM.

One may read the IC50 as the midpoint of a concentration-inhibition curve. A low value points to inhibition by little substance. In general, inhibition refers to the relative decrease from the control value, in per cent.
